Experimental data published in patent US12060360B2, “Lysyl oxidase inhibitors” (The Institute of Cancer Research: Royal Cancer Hospital, priority 2017, dated 2024).
pIC50: −log10 of the molar value. Read-outs that look alike come from different tables or passages of the source.

Molecular target: T1, LOX (Mus musculus, UniProt P28301)
T1 construct: Full length LOX cDNA was then PCR cloned into pEGFP-N1 (Clonetech), or biosensor vector proGFP2-N1; expressed in transfected cells; host or cells: MDCK cells grown as cysts on Matrigel, G418-selected
T1 sequence (P28301 163-411): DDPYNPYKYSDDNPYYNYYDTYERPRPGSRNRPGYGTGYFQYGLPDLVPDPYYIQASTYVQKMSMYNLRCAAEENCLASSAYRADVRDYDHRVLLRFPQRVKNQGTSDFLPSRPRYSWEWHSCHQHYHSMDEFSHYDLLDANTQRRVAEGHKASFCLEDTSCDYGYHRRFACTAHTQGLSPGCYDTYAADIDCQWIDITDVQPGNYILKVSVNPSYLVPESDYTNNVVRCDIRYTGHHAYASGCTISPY
Assay: LOX activity in cysts assay (LOX-roGFP2 biosensor, MDCK cysts)
Format: cell-based
Settings: for inhibition at 10 µM: read-out: LOX biosensor inhibition (cyst) @ 10 uM; for pIC50: roGFP2 ratio at basal surface, read-out: LOX biosensor IC50 (cyst)
Experimental: LOX Activity in Cysts Assay (Tang et al, 2017).
All cell lines used in this study were purchased from American Type Culture Collection (ATCC). Mycoplasma contamination was routinely monitored by PCR. Cells used were not found to be Mycoplasma positive. MDCK cell lines were cultured in Dulbecco's Modified Eagle Medium (DMEM) supplemented with 10% fetal bovine serum (FBS) and 1% Penicillin Streptomycin solution (Pen Strep). For GFP constructs transfection in MDCK cells, lipofectamine 3000 was used according to manufactures protocols. Cells were either selected with G418 (Life Technologies) at 5 mg/ml. All cell culture reagents were purchased from Life Technologies.
To produce MDCK cysts, cells were cultured on Matrigel (Corning) with 2% Matrigel supplemented in DMEM with 10% FBS. Cysts were allowed to form for 10 days before subsequent studies.
Mouse LOX cDNA was purchased from OriGene. Full length LOX cDNA was then PCR cloned into pEGFP-N1 (Clonetech), or biosensor vector proGFP2-N1 (Hanson, 2004) using the following primers, […] (forward primer) and […] (reverse primer). For the insertion into pEGFP-N1 or proGFP2-N1, NheI and XhoI restriction sites were added to forward and reverse primers accordingly. Mutant LOX constructs were made using QuickChange II site-directed mutagenesis kit (Agilent Technologies) following manufacture's protocol using LOX-GFP as template. To generate, roGFP2 versions of LOX mutant constructs, LOX mutant cDNA was transferred from pEGFP-N1 to proGFP2-N1 using NheI and XhoI.
All photomicrographs were taken with a Leica TCS SP8 X confocal system. For LOX biosensor imaging, live MDCK cysts were used. The oxidised biosensor was excited using a 405 nm laser, while the reduced biosensor was excited with a 488 nm laser. Emission of the biosensor was recorded at 500 nm˜530 nm range using sequential scans. Ratio images were generated following a published protocol {Kardash, 2011 #376}. Note, while the published protocol generates YFP/CFP ratio images, we used it to generate Oxidised/Reduced (roGFP2 ratio) ratio images. The roGFP2 ratio at the basal surface of MDCK cysts was used to indicate LOX inhibition. LOX inhibitors were added 30 min prior to imaging.
For clarity, readout for DMSO treated cysts represents 0% inhibition (no inhibition) and readout for BAPN at 1 mM is used as 100% inhibition (full inhibition).

[1] = 10 uM, MDCK cysts, inhibitor added 30 min prior to imaging, DMSO = 0%, BAPN 1 mM = 100% inhibition

Structure (SMILES): CC1(C)C[C@@H]2CN(C(=O)N3CCS(=O)(=O)CC3)C[C@H]1N(c1ccc(N3CCN(S(C)(=O)=O)CC3)cc1)C2 [Example 31, ((1S,5S)-9,9-dimethyl-6-(4-(4-(methylsulfonyl)-1λ4-piperazin-1-yl)phenyl)-3,6-diazabicyclo[3.2.2]nonan-3-yl)(1,1-dioxidothiomorpholino)methanone]
- inhibition at 10 µM [1]: 100%
- pIC50 (MDCK cysts): > 6.74

Structure (SMILES): CC1(C)C[C@@H]2CN(C(=O)NCCO)C[C@H]1N(c1ccc(N3CCCCC3)cc1)C2 [Example 32, (1S,5S)-N-(2-hydroxyethyl)-9,9-dimethyl-6-(4-(piperidin-1-yl)phenyl)-3,6-diazabicyclo[3.2.2]nonane-3-carboxamide]
- inhibition at 10 µM [1]: 90%
- pIC50 (MDCK cysts): > 6.74

Structure (SMILES): CCCCc1ccc(N2C[C@H]3CN(C(=O)NCCO)C[C@@H]2C(C)(C)C3)cc1 [Example 33, (1S,5S)-6-(4-butylphenyl)-N-(2-hydroxyethyl)-9,9-dimethyl-3,6-diazabicyclo[3.2.2]nonane-3-carboxamide]
- inhibition at 10 µM [1]: 69.3%

Structure (SMILES): CC1(C)C[C@@H]2CN(C(=O)NCCO)C[C@H]1N(c1ccc(SCCO)cc1)C2 [Example 34, (1S,5S)-N-(2-Hydroxyethyl)-6-(4-((2-hydroxyethyl)thio)phenyl)-9,9-dimethyl-3,6-diazabicyclo[3.2.2]nonane-3-carboxamide]
- inhibition at 10 µM (MDCK): 100%

Structure (SMILES): CC1(C)C[C@@H]2CN(C(=O)NCCO)C[C@H]1N(c1ccc(Br)cc1)C2 [Example 35, (1S,5S)-6-(4-Bromophenyl)-N-(2-hydroxyethyl)-9,9-dimethyl-3,6-diazabicyclo[3.2.2]nonane-3-carboxamide]
- inhibition at 10 µM [1]: 84.1%

Structure (SMILES): CC1(C)C[C@@H]2CN(C(=O)NCCO)C[C@H]1N(c1ccc(C=O)cc1)C2 [Example 37, (1 S,5S)-6-(4-Formylphenyl)-N-(2-hydroxyethyl)-9,9-dimethyl-3,6-diazabicyclo[3.2.2]nonane-3-carboxamide]
- inhibition at 10 µM [1]: 86%

Structure (SMILES): CCOc1ccc(N2C[C@H]3CN(C4=NCCO4)C[C@@H]2C(C)(C)C3)cc1 [Example 38, 2-((1S,5S)-6-(4-ethoxyphenyl)-9,9-dimethyl-3,6-diazabicyclo[3.2.2]nonan-3-yl)-4,5-dihydrooxazole]
- inhibition at 10 µM [1]: 59%

Structure (SMILES): CCOc1ccc(N2C[C@H]3CN(Cc4ccc(Cl)cc4)C[C@@H]2C(C)(C)C3)cc1 [Example 40, (1R,5S)-3-(4-chlorobenzyl)-6-(4-ethoxyphenyl)-9,9-dimethyl-3,6-diazabicyclo[3.2.2]nonane]
- inhibition at 10 µM [1]: 68%

Structure (SMILES): C#CCN1C[C@@H]2CN(c3ccc(OCC)cc3)[C@H](C1)C(C)(C)C2 [Example 41, (1R,5S)-6-(4-ethoxyphenyl)-9,9-dimethyl-3-(prop-2-yn-1-yl)-3,6-diazabicyclo[3.2.2]nonane]
- inhibition at 10 µM [1]: 87%

Structure (SMILES): CCOc1ccc(N2C[C@H]3CN(CC4(CC#N)CC4)C[C@@H]2C(C)(C)C3)cc1 [Example 43, 2-(1-(((1R,5S)-6-(4-ethoxyphenyl)-9,9-dimethyl-3,6-diazabicyclo[3.2.2]nonan-3-yl)methyl)cyclopropyl)acetonitrile]
- inhibition at 10 µM [1]: 59%

Structure (SMILES): C#CCCCN1C[C@@H]2CN(c3ccc(OCC)cc3)[C@H](C1)C(C)(C)C2 [Example 44, (1R,5S)-6-(4-ethoxyphenyl)-9,9-dimethyl-3-(pent-4-yn-1-yl)-3,6-diazabicyclo[3.2.2]nonane]
- inhibition at 2.5 µM (2.5 uM (stated in cell), MDCK cysts, DMSO = 0%, BAPN 1 mM = 100% inhibition, read-out: LOX biosensor inhibition (cyst) @ 2.5 uM): 66%
- pIC50 (MDCK cysts): 6.51

Structure (SMILES): CCOc1ccc(N2C[C@H]3CN(CCCC#N)C[C@@H]2C(C)(C)C3)cc1F [Example 45, 4-((1R,5S)-6-(4-Ethoxy-3-fluorophenyl)-9,9-dimethyl-3,6-diazabicyclo[3.2.2]nonan-3-yl)butanenitrile]
- inhibition at 10 µM [1]: 42%

Structure (SMILES): CCOc1ccc(N2C[C@H]3CN(CC(O)CC#N)C[C@@H]2C(C)(C)C3)cc1 (stereo partly drawn) [Example 46, 4-((1R,5S)-6-(4-Ethoxyphenyl)-9,9-dimethyl-3,6-diazabicyclo[3.2.2]nonan-3-yl)-3-hydroxybutanenitrile]
- inhibition at 10 µM [1]: 72%

Structure (SMILES): CCOc1ccc(N2C[C@H]3CN(C4CCN(C)CC4)C[C@@H]2C(C)(C)C3)cc1 [Example 47, (1R,5S)-6-(4-ethoxyphenyl)-9,9-dimethyl-3-(1-methylpiperidin-4-yl)-3,6-diazabicyclo[3.2.2]nonane]
- inhibition at 10 µM [1]: 90%

Structure (SMILES): CCOc1ccc(N2C[C@H]3CN(CCc4cn[nH]c4)C[C@@H]2C(C)(C)C3)cc1 [Example 48, (1R,5S)-3-(2-(1H-pyrazol-4-yl)ethyl)-6-(4-ethoxyphenyl)-9,9-dimethyl-3,6-diazabicyclo[3.2.2]nonane]
- inhibition at 10 µM [1]: 100%

Structure (SMILES): CCOc1ccc(N2C[C@H]3CN(C(=O)CCC#N)C[C@@H]2C(C)(C)C3)cc1 [Example 50, 4-((1S,5S)-6-(4-Ethoxyphenyl)-9,9-dimethyl-3,6-diazabicyclo[3.2.2]nonan-3-yl)-4-oxobutanenitrile]
- inhibition at 10 µM [1]: 57%

Structure (SMILES): CCOc1ccc(N2C[C@H]3CN(C(=O)c4ccccn4)C[C@@H]2C(C)(C)C3)cc1 [Example 51, ((1S,5S)-6-(4-ethoxyphenyl)-9,9-dimethyl-3,6-diazabicyclo[3.2.2]nonan-3-yl)(pyridin-2-yl)methanone]
- inhibition at 10 µM [1]: 75%

Structure (SMILES): CCOc1ccc(N2C[C@H]3CN(C(=O)CCc4cccnc4)C[C@@H]2C(C)(C)C3)cc1 [Example 52, 1-((1S,5S)-6-(4-ethoxyphenyl)-9,9-dimethyl-3,6-diazabicyclo[3.2.2]nonan-3-yl)-3-(pyridin-3-yl)propan-1-one]
- inhibition at 10 µM [1]: 100%

Structure (SMILES): CCOc1ccc(N2C[C@H]3CN(C(=O)CNC(=N)CN)C[C@@H]2C(C)(C)C3)cc1 [Example 53, 2-amino-N-(2-((1S,5S)-6-(4-ethoxyphenyl)-9,9-dimethyl-3,6-diazabicyclo[3.2.2]nonan-3-yl)-2-oxoethyl)acetimidamide]
- inhibition at 10 µM [1]: 100%

Structure (SMILES): CCCS(=O)(=O)N1C[C@@H]2CN(c3ccc(OCC)cc3)[C@H](C1)C(C)(C)C2 [Example 54, (1S,5S)-6-(4-ethoxyphenyl)-9,9-dimethyl-3-(propylsulfonyl)-3,6-diazabicyclo[3.2.2]nonane]
- inhibition at 10 µM [1]: 54%

Structure (SMILES): CCOc1ccc(N2C[C@H]3CN(S(=O)(=O)c4ccc(F)cc4)C[C@@H]2C(C)(C)C3)cc1 [Example 55, (1S,5S)-6-(4-ethoxyphenyl)-3-((4-fluorophenyl)sulfonyl)-9,9-dimethyl-3,6-diazabicyclo[3.2.2]nonane]
- inhibition at 10 µM [1]: 100%

Structure (SMILES): CNS(=O)(=O)N1C[C@@H]2CN(c3ccc(OC)cc3)[C@H](C1)C(C)(C)C2 [Example 56, (1S,5S)-6-(4-methoxyphenyl)-N,9,9-trimethyl-3,6-diazabicyclo[3.2.2]nonane-3-sulfonamide]
- inhibition at 10 µM [1]: 74%

Structure (SMILES): CCOc1ccc(N2C[C@H]3CN(S(=O)(=O)N4CCOCC4)C[C@@H]2C(C)(C)C3)cc1 [Example 57, 4-(((1S,5S)-6-(4-ethoxyphenyl)-9,9-dimethyl-3,6-diazabicyclo[3.2.2]nonan-3-yl)sulfonyl)morpholine]
- inhibition at 10 µM [1]: 93%

Structure (SMILES): CCOc1ccc(N2C[C@H]3CN(c4ccc(NC(C)=O)cc4)C[C@@H]2C(C)(C)C3)cc1 [Example 58, N-(4-((1R,5S)-6-(4-ethoxyphenyl)-9,9-dimethyl-3,6-diazabicyclo[3.2.2]nonan-3-yl)phenyl)acetamide]
- inhibition at 10 µM [1]: 100%

Structure (SMILES): CC1(C)C[C@@H]2CN(C(=O)N3CCN(S(C)(=O)=O)CC3)C[C@H]1N(c1ccc(N3CCS(=O)(=O)CC3)cc1)C2 [Example 61, ((1S,5S)-6-(4-(1,1-dioxidothiomorpholino)phenyl)-9,9-dimethyl-3,6-diazabicyclo[3.2.2]nonan-3-yl)(4-(methylsulfonyl)piperazin-1-yl)methanone]
- inhibition at 10 µM [1]: 79%

Structure (SMILES): CC1(C)C[C@@H]2CN(C(=O)N3CCS(=O)(=O)CC3)C[C@H]1N(c1ccc3c(c1)OCCO3)C2 [Example 63, ((1 S,5S)-6-(2,3-dihydrobenzo[b][1,4]dioxin-6-yl)-9,9-dimethyl-3,6-diazabicyclo[3.2.2]nonan-3-yl)(1,1-dioxidothiomorpholino)methanone]
- inhibition at 10 µM [1]: 100%
